In PubChem BioAssay (NCI):
Where “and” joins values, the source holds several entries; their conditions need not be identical. Equal values may be shown once.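 Compound exposure: 48 hours, 5 concentrations, 96-well plates. GI50 marks 50% less growth. TGI denotes the concentration required for complete inhibition of growth.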

How the values were obtained:
Test in all cases: NCI-60 cell line screen, 48 h
[1] = test system: ACHN renal
[2] = test system: CAKI-1 renal
[3] = test system: HL-60(TB) leukemia
[4] = test system: KM12 colon
[5] = test system: M14 melanoma
[6] = test system: NCI-H522 lung
[7] = test system: OVCAR-3 ovarian
[8] = test system: SK-MEL-2 melanoma
[9] = test system: SK-OV-3 ovarian
[10] = test system: SN12C renal

SMILES	TGI [1]	TGI [2]	TGI [3]	TGI [4]	TGI [5] [µM]	TGI [6]	TGI [7]	TGI [8]	TGI [9]	TGI [10]	GI50 [1]	GI50 [2]	GI50 [3]	GI50 [4]	GI50 [5] [µM]	GI50 [6]	GI50 [7]	GI50 [8] [µM]	GI50 [9]	GI50 [10]
O=C(O)c1ccccc1[Se][Se]c1ccccc1C(=O)O	> 100 µM	> 100 µM	> 100 µM	89.1 µM	> 100	> 100 µM	> 100 µM	> 100 µM	> 100 µM	> 100 µM										
O=C1C2C(C(=O)N1OS(=O)(=O)c1ccccc1)N(Cc1ccccc1)C(=O)N2Cc1ccccc1 (configuration not stated)	> 100 µM	> 100 µM	> 100 µM	> 100 µM	> 100	> 100 µM	> 100 µM		> 100 µM	> 100 µM										
CSc1nc2c(c(=O)[nH]1)N=C1c3ccccc3C(=O)C1C(c1ccccc1)N2 (configuration not stated)	> 100 µM	> 100 µM	> 100 µM	37.5 µM	> 100	30.4 µM	5.67 µM	> 100 µM	> 100 µM	> 100 µM	3.73 µM	2.18 µM	2.51 µM	2.27 µM	3.29	1.41 µM	2.12 µM	9.02	7.65 µM	6.39 µM
Cc1cc(I)cc(CN(C)CCCCN2CCCCC2)c1O	76.7 µM	29.5 µM	26.3 µM	31.3 µM	12.4	38.2 µM	53.4 µM	29.2 µM	42.4 µM	> 100 µM	27.3 µM	13.6 µM	10.9 µM	13.6 µM	3.31	17.2 µM	20 µM	13.8	18.3 µM	35.5 µM
CC/C=C\CCC/C=C1/C(=O)C=C[C@@H]1C/C=C\CCCC(=O)OC	4.43 µM	13.5 µM	7.51 µM	6.39 µM	10.1	3.77 µM	11.8 µM	7.21 µM	29.4 µM	8.18 µM	2.13 µM	4.12 µM	2.79 µM	2.46 µM	3.17	1.91 µM	3.39 µM	2.6	14.9 µM	2.92 µM
Cc1ccc(NC2=C(Cl)C(=O)N(Cc3ccccc3)C2=O)cc1O		> 100 µM	> 100 µM	> 100 µM	> 100	> 100 µM	70 µM	54.8 µM	> 100 µM	93.8 µM		28.1 µM	6.45 µM	41.4 µM	51.4	41.2 µM	20.6 µM	7.83	55.2 µM	25.6 µM
O=C(Nc1ccc(Cl)c(Cl)c1)Nc1ccc(Cl)c(Cl)c1	6.49 µM and 10.5 µM	9.96 µM and 4.59 µM	7.24 µM and 6.68 µM	11.6 µM and 6.99 µM	9.59	5.67 µM and 3.03 µM	10.9 µM and 5.9 µM	5.49 µM and 4.09 µM	11.6 µM and 15.9 µM	11.8 µM and 10.7 µM	2.34 µM and 3.28 µM	2.6 µM and 1.94 µM	2.58 µM and 2.16 µM	3.04 µM and 2.52 µM	3.1	1.68 µM and 1.25 µM	3.03 µM and 1.66 µM	2.15	3.39 µM and 3.82 µM	3.1 µM and 2.83 µM
CCCCCN(CCCCC)CC(O)c1cc(C)c2ccc3cc(C(C)C)ccc3c2c1 (configuration not stated)	3.05 µM	2.81 µM	4.02 µM	3.36 µM	3.7	3.85 µM	3.41 µM	4.83 µM	3.46 µM	3.59 µM	1.6 µM	1.4 µM	2.04 µM	1.8 µM	1.77	1.81 µM	1.92 µM	2.2	1.72 µM	1.75 µM
CC1=C(C(=O)Nc2ccc(Cl)c(Cl)c2)C(c2cccc(Oc3ccccc3)c2)NC(=S)N1 (configuration not stated)	15.1 µM	15.4 µM	> 50 µM	12.6 µM	20.1	21.8 µM	8.15 µM	18.9 µM	16.3 µM	15.9 µM	8.07 µM	8.48 µM	15.9 µM	5.71 µM	9.21	11.7 µM	1.87 µM	9.38	8.1 µM	8.75 µM
CNS(=O)(=O)NNS(=O)(=O)c1ccc2ccccc2c1	> 100 µM	> 100 µM	> 100 µM	> 100 µM	> 100	> 100 µM	> 100 µM	> 100 µM	> 100 µM	> 100 µM										
CO[C@H](C(=O)[C@@H](O)[C@@H](C)O)[C@@H]1Cc2cc3cc(O[C@H]4C[C@@H](O[C@H]5C[C@@H](O)[C@H](O)C(C)O5)[C@H](O)C(C)O4)c(C)c(O)c3c(O)c2C(=O)[C@H]1O[C@H]1C[C@@H](O[C@H]2C[C@@H](O[C@H]3C[C@](C)(O)C(=O)C(C)O3)[C@@H](O)C(C)O2)[C@H](O)C(C)O1 (some centres not stated)	1.55 µM	> 33.2 µM	> 21 µM	6.67 µM	0.817	0.285 µM	3.54 µM	0.156 µM	> 33.2 µM	> 33.2 µM	0.154 µM	0.924 µM	0.592 µM	0.0672 µM	0.12	0.0288 µM	0.0907 µM	0.059	0.139 µM	0.093 µM
CCOC(=O)CN1C(=O)c2cccc3cc([N+](=O)[O-])cc(c23)C1=O	21.7 µM		2.32 µM	8.73 µM	11.5		14.9 µM	2.87 µM	41 µM	17.2 µM										
Cc1ccc(N=Nc2ccc(N(CCC#N)CCC#N)cc2C)c(Br)c1	> 100 µM	24.6 µM	65.7 µM	55.8 µM	92.3	> 100 µM	> 100 µM	> 100 µM	> 100 µM	> 100 µM										
O=C(COc1ccc(Br)cc1Br)N1N=C(c2ccc([N+](=O)[O-])o2)CC1(O)c1ccccc1 (configuration not stated)	> 100 µM	65.3 µM	17.1 µM	45.3 µM	21.9	20.7 µM	20.2 µM	31.3 µM	> 100 µM	25.7 µM										
CC(=O)NNc1nc(C)c(C(=O)NNC(=O)C(=O)Nc2c(Cl)cc([N+](=O)[O-])cc2Cl)s1	> 100 µM		84.7 µM	> 100 µM	> 100		52.8 µM	> 100 µM	> 100 µM	> 100 µM										
CC(=O)NNc1nc(C)c(C(=O)NNC(=O)C(=O)Nc2ccc(Cl)cc2)s1	> 100 µM		> 100 µM	> 100 µM	> 100	> 100 µM	> 100 µM	> 100 µM	> 100 µM	> 100 µM										
C/C(CC(=O)CCC(=O)Nc1cccc(C(F)(F)F)c1)=N\NC(=O)NN	> 100 µM	> 100 µM	> 100 µM	> 100 µM	> 100	> 100 µM	> 100 µM	> 100 µM	> 100 µM	> 100 µM										

SMILES	TGI [1]	TGI [2]	TGI [3]	TGI [4]	TGI [5] [µM]	TGI [6]	TGI [7]	TGI [8]	TGI [9]	TGI [10]	GI50 [1]	GI50 [2]	GI50 [3]	GI50 [4]	GI50 [5] [µM]	GI50 [6]	GI50 [7]	GI50 [8] [µM]	GI50 [9]	GI50 [10]
COc1cc(CNc2cnc3cc(N)cc(N)c3n2)cc(OC)c1		52.3 µM	> 100 µM	71.8 µM	33.8	78.2 µM	48.3 µM	> 100 µM		33.3 µM		24.8 µM	32.9 µM	22.5 µM	18.1	23.8 µM	19.6 µM	66.7		15.2 µM
Cc1ccc(C(=O)/C(=C/c2ccc([N+](=O)[O-])cc2)SCc2ccc(Cl)cc2)cc1	3.13 µM	4.9 µM	7.29 µM	5.73 µM	19.4	3.54 µM	3.54 µM	63.2 µM	> 100 µM	4.68 µM	1.69 µM	1.7 µM	2.35 µM	1.91 µM	2.52	1.64 µM	1.72 µM	15.8	27.4 µM	1.83 µM
COc1ccccc1C12OC(=O)C1(C)Oc1ccccc1C2=O (configuration not stated)	> 100 µM		> 100 µM	> 100 µM	> 100		> 100 µM	> 100 µM	> 100 µM	> 100 µM										
O=C(N/C(=C\c1ccc(/C=C(\NC(=O)c2ccccc2)c2nc3cc([N+](=O)[O-])ccc3[nH]2)cc1)c1nc2cc([N+](=O)[O-])ccc2[nH]1)c1ccccc1	> 100 µM	> 100 µM			> 100	50 µM	> 100 µM	83.3 µM	> 100 µM	> 100 µM										
Clc1ccc2c(NCCCCNc3nc(N4CCCCC4)nc4ccccc34)ccnc2c1	4.77 µM		3.52 µM	13.1 µM	3.14	5.3 µM	4.89 µM	4.02 µM	14.4 µM	12.7 µM	2.1 µM		1.76 µM	3.4 µM	1.62	2.04 µM	1.95 µM	1.98	3.81 µM	2.78 µM
Clc1cc2nsnc2c(Cl)n1	> 100 µM	24.5 µM	36.2 µM	> 100 µM	29	36.7 µM	33.4 µM	34 µM	> 100 µM											
COc1cc2c(cc1OC)-c1c3cc(O)ccc3nn[n+]1CC2			> 100 µM	> 100 µM	> 100	> 100 µM	> 100 µM		> 100 µM	> 100 µM										
COc1cc(-c2nn(-c3ccc(NC(=O)c4ccc(Cl)c(C(F)(F)F)c4)cc3)cc2-c2ccncc2)ccc1Cl	> 100 µM	7.29 µM	> 57.3 µM	4.84 µM	8.26		> 30.9 µM	> 28.5 µM	> 100 µM	> 100 µM	3.35 µM	1.71 µM	3.62 µM	1.5 µM	2.51		2.98 µM	3.12	> 27.1 µM	4.64 µM
CC(C)C/C(CC(=O)CCC(=O)Nc1ccccc1[N+](=O)[O-])=N\NC(=O)c1cc2ccccc2cc1O	> 100 µM	> 100 µM	88.7 µM	> 100 µM	> 100	76 µM	99.3 µM		> 100 µM	> 100 µM										
Cn1c2ccccc2c2c(Nc3ccccc3)c3ccccc3nc21	65.5 µM	38.7 µM			33.3	> 100 µM		> 100 µM	> 100 µM	47.3 µM	23 µM	16.7 µM			15.9	45.6 µM		80	41 µM	16.5 µM
CN(C)C(=N)c1ccccc1		> 100 µM	> 100 µM	> 100 µM	> 100	> 100 µM	> 100 µM	> 100 µM		> 100 µM										
CCN(CCO)CC1CCCC2CCCCC21 (configuration not stated)	> 100 µM	> 100 µM		> 100 µM	> 100	> 100 µM	> 100 µM	> 100 µM	> 100 µM	> 100 µM										
COC(CN1C(=O)c2cccc3cccc(c23)C1=O)OC	> 100 µM		> 100 µM	> 100 µM	> 100		> 100 µM	86.3 µM	> 100 µM	> 100 µM										
Cc1nc2ccccc2c(N)c1-c1cc(C)c2c(C)nc3ccccc3c2n1	0.599 µM	2.94 µM		2.15 µM	2.65	> 20.5 µM	1.83 µM		4.72 µM	2.9 µM	0.237 µM	1.55 µM	0.454 µM	0.785 µM	1.34	2.41 µM	0.69 µM		1.8 µM	1.41 µM
CC1=C(C(=O)NCc2ccccc2)C(/C=C/c2ccccc2)C(C(=O)NCc2ccccc2)=C(C)N1	> 100 µM	> 100 µM	> 100 µM	> 100 µM	> 100		> 100 µM	> 100 µM		> 100 µM										
COc1ccc2c3c1C(=O)CCCC3CO2 (configuration not stated)	> 100 µM		> 100 µM	> 100 µM	> 100	> 100 µM	> 100 µM	> 100 µM	> 100 µM	> 100 µM										
Cc1nc2ccccc2c(=O)n1-c1ccccc1I	> 100 µM	> 100 µM	> 100 µM		> 100	> 100 µM	> 100 µM	> 100 µM	> 100 µM	> 100 µM										
